IC50 data for 16 compounds are collected here from US12060349B2, “Glucosylceramide synthase inhibitors” (Genzyme Corporation, priority 2012, dated 2024).

Read-outs that look alike come from different tables or passages of the source.

Assay [1] has as its system GM3 expression on the cell surface, B16 mouse melanoma cells. In words: cell based phenotypic assay, cell surface GM3 by antibody mediated immunofluorescence, B16 (GM3 B16 IC50). The note with it: Mus musculus, 50% inhibition of GM3 expression on the cell surface. In short, it runs like this:
(§1)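 Both lines undergo the phenotypic GM3 assay, and viability is recorded from that same cell-based run.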

In assay [2] the target is T1, glucosylceramide synthase (Homo sapiens, UniProt Q16739).
T1 construct: Microsomes were isolated from A375 human melanoma cells; endogenous in cells; host or cells: A375 human melanoma cells (microsomal fraction, 100,000 g pellet)
T1 sequence (Q16739 1-394): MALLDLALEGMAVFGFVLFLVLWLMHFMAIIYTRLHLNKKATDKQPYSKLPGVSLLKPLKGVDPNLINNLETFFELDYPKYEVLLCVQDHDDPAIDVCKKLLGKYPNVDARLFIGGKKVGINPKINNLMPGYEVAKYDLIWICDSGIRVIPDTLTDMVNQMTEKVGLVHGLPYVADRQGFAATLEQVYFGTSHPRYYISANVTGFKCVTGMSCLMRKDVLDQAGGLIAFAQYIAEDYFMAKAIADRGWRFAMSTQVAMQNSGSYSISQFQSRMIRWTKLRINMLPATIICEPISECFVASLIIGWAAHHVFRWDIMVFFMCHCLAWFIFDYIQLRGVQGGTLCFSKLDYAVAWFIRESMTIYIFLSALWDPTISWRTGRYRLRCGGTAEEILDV
The assay can be described thus: microsomal assay measuring conversion of ceramide to glucosylceramide by HPLC (GCS IC50). In kind it is biochemical. The note with it: concentration causing 50% inhibition of glucosylceramide synthase activity. The gist of the method:
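IC50 is the compound concentration halving glucosylceramide synthase activity. Activity was measured in microsomes, with HPLC quantifying glucosylceramide formed from ceramide.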

Assay [3] relates to GM3 expression on the cell surface, C32 human melanoma cells. In words: cell based phenotypic assay, cell surface GM3 by antibody mediated immunofluorescence, C32 (GM3 C32 IC50). The conditions noted are these: Homo sapiens, 50% inhibition of GM3 expression on the cell surface. In short, it runs like this:
as §1

The test system of the next assay is C32 human melanoma cells. The assay can be described thus: cell viability in the C32 cell-based assay (Viability, C32 IC50). The conditions noted are these: Homo sapiens, concentration causing 50% cell death, values greater than 10 represent a lack of cell death. The gist of the method: (§2)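 Cell death was scored within the cell-based GM3 experiment for each line. The viability value is the concentration producing 50% death, and numbers exceeding 10 signify no cytotoxicity.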

In the next assay the test system is B16 mouse melanoma cells. In words: cell viability in the B16 cell-based assay (Viability, B16 IC50). The note with it: Mus musculus. The gist of the method:
as §2

The mark [4] stands for this setting: B16 mouse melanoma cells, read-out: GM3 B16 IC50.
Where [5] appears, read: C32 human melanoma cells, read-out: GM3 C32 IC50.
[6] abbreviates: C32, C32 cells, read-out: Viability, C32 IC50.
Setting [7] is: B16, B16 cells, concentration causing 50% cell death, values greater than 10 represent a lack of cell death, read-out: Viability, B16 IC50.
Setting [8] is: read-out: GM3 B16 IC50, B16 mouse melanoma cells.
Where [9] appears, read: read-out: GM3 C32 IC50, C32 human melanoma cells.
The mark [10] stands for this setting: C32, read-out: Viability, C32 IC50, C32 cells.
[11] abbreviates: B16, read-out: Viability, B16 IC50.

Regarding `COCCCOc1ccc(-c2ccc(C(C)(C)NC(=O)NC3(C)CN4CCC3CC4)cc2)cc1` (centres unmarked) [Example 173, 1-(2-(4′-(3-Methoxypropoxy)-[1,1′-biphenyl]-4-yl)propan-2-yl)-3-(3-methylquinuclidin-3-yl)urea], the IC50 (commonly the concentration needed to halve the response being measured) in assay [1] (setting [4]) is 20.3 nM; in assay [2] it was 1.98 nM; in assay [3] (setting [5]), 0.766 nM; in the assay with C32 human melanoma cells (setting [6]), at least 10000 nM; in the assay with B16 mouse melanoma cells (setting [7]), at least 10000 nM.

As to `COCCCOc1ccc(-c2ccc(C(C)(C)NC(=O)N3CCN4CCC3CC4)cc2)cc1` [Example 174, N-(2-(4′-(3-Methoxypropoxy)-[1,1′-biphenyl]-4-yl)propan-2-yl)-1,4-diazabicyclo[3.2.2]nonane-4-carboxamide], the IC50 was 386 nM in assay [1] (setting [4]); 134 nM in assay [2]; 22.5 nM in assay [3] (setting [5]); 1000 nM with C32 human melanoma cells (setting [6]); at least 10000 nM in the assay with B16 mouse melanoma cells (setting [7]).

Consider `COCCCOc1ccc(-c2ccc(C3(NC(=O)NC4(C)CN5CCC4CC5)CC3)cc2)cc1` (centres unmarked) [Example 176, 1-(1-(4′-(3-Methoxypropoxy)-[1,1′-biphenyl]-4-yl)cyclopropyl)-3-(3-methylquinuclidin-3-yl)urea], for which the IC50 is 22 nM in assay [1] (setting [4]); 4.1 nM in assay [2]; 1.47 nM in assay [3] (setting [5]); at least 10000 nM in the assay with C32 human melanoma cells (setting [6]); at least 10000 nM in the assay on B16 mouse melanoma cells (setting [7]).

On to `COCCCOc1ccc(-c2ccc(C3(NC(=O)NC4(C)CCN5CCC4CC5)CC3)cc2)cc1` (centres unmarked) [Example 177, 1-(1-(4′-(3-Methoxypropoxy)-[1,1′-biphenyl]-4-yl)cyclopropyl)-3-(4-methyl-1-azabicyclo[3.2.2]nonan-4-yl)urea], for which the IC50 in assay [1] (setting [4]) was 1.75 nM; in assay [2], 1.59 nM; in assay [3] (setting [5]), 0.497 nM; in the assay with C32 human melanoma cells (setting [6]), at least 10000 nM; in the assay with B16 mouse melanoma cells (setting [7]), at least 10000 nM.

Regarding `COCCCOc1ccc(-c2ccc(C3(NC(=O)OC4CCN5CCC4CC5)CC3)cc2)cc1` (centres unmarked) [Example 178, 1-Azabicyclo[3.2.2]nonan-4-yl (1-(4′-(3-methoxypropoxy)-[1,1′-biphenyl]-4-yl)cyclopropyl)carbamate], the half-maximal inhibitory concentration (IC50) in assay [1] (setting [4]) was 67.9 nM; in assay [2], 3.54 nM; in assay [3] (setting [5]), 2.61 nM; in the assay on C32 human melanoma cells (setting [6]), 7100 nM; in the assay on B16 mouse melanoma cells (setting [7]), at least 10000 nM.

As to `CC(C)(NC(=O)OC1CN2CCC1CC2)c1ccc(-c2ccc(OCCn3cccn3)cc2)cc1` (centres unmarked) [Example 179, Quinuclidin-3-yl (2-(4′-(2-(1H-pyrazol-1-yl)ethoxy)-[1,1′-biphenyl]-4-yl)propan-2-yl)carbamate], the IC50 in assay [1] (setting [8]) was 95.2 nM; in assay [2], 6.73 nM; in assay [3] (setting [9]), 4.99 nM; with C32 human melanoma cells (setting [10]), 3160 nM; with B16 mouse melanoma cells (setting [11]), 8730 nM.

In the case of `CC(C)(NC(=O)NC1(C)CN2CCC1CC2)c1ccc(-c2ccc(OCCn3cccn3)cc2)cc1` (centres unmarked) [Example 180, 1-(2-(4′-(2-(1H-Pyrazol-1-yl)ethoxy)-[1,1′-biphenyl]-4-yl)propan-2-yl)-3-(3-methylquinuclidin-3-yl)urea], the IC50 in assay [1] (setting [4]) is 46.3 nM; in assay [2], 5.3 nM; in assay [3] (setting [5]), 1.81 nM; in the assay with C32 human melanoma cells (setting [6]), 3160 nM; with B16 mouse melanoma cells (setting [7]), 3160 nM.

In the case of `CC(C)(NC(=O)NC1(C)CCN2CCC1CC2)c1ccc(-c2ccc(OCCn3cccn3)cc2)cc1` (centres unmarked) [Example 181, 1-(2-(4′-(2-(1H-Pyrazol-1-yl)ethoxy)-[1,1′-biphenyl]-4-yl)propan-2-yl)-3-(4-methyl-1-azabicyclo[3.2.2]nonan-4-yl)urea], the IC50 in assay [1] (setting [4]) was found to be 5.15 nM; in assay [2] it was 2.33 nM; in assay [3] (setting [5]) it was 0.587 nM; in the assay on C32 human melanoma cells (setting [6]), 1000 nM; in the assay with B16 mouse melanoma cells (setting [7]), 1000 nM.

Turning to `CC(C)(NC(=O)OC1CN2CCC1CC2)c1ccc(-c2ccc(OCCn3ccnn3)cc2)cc1` (centres unmarked) [Example 182, Quinuclidin-3-yl (2-(4′-(2-(1H-1,2,3-triazol-1-yl)ethoxy)-[1,1′-biphenyl]-4-yl)propan-2-yl)carbamate], the IC50 worked out at 388 nM in assay [1] (setting [8]); 43.1 nM in assay [2]; 13.1 nM in assay [3] (setting [9]); 1000 nM in the assay on C32 human melanoma cells (setting [10]); 3160 nM with B16 mouse melanoma cells (setting [11]).

For `CC(C)(NC(=O)NC1(C)CN2CCC1CC2)c1ccc(-c2ccc(OCCn3ccnn3)cc2)cc1` (centres unmarked) [Example 183, 1-(2-(4′-(2-(1H-1,2,3-Triazol-1-yl)ethoxy)-[1,1′-biphenyl]-4-yl)propan-2-yl)-3-(3-methylquinuclidin-3-yl)urea], the IC50 in assay [1] (setting [4]) worked out at 969 nM; in assay [2], 31.6 nM; in assay [3] (setting [5]) it was 10.2 nM; in the assay with C32 human melanoma cells (setting [6]), 2510 nM; in the assay with B16 mouse melanoma cells (setting [7]), 5620 nM.

On to `CCC1(NC(=O)NC(C)(C)c2ccc(-c3ccc(OCCn4ccnn4)cc3)cc2)CN2CCC1CC2` (centres unmarked) [Example 184, 1-(2-(4′-(2-(1H-1,2,3-Triazol-1-yl)ethoxy)-[1,1′-biphenyl]-4-yl)propan-2-yl)-3-(3-ethylquinuclidin-3-yl)urea], for which the IC50 was 188 nM in assay [1] (setting [4]); 21.1 nM in assay [2]; 3.46 nM in assay [3] (setting [5]); 1000 nM with C32 human melanoma cells (setting [6]); 3160 nM with B16 mouse melanoma cells (setting [7]).

In the case of `CC(C)(NC(=O)NC1(C)CCN2CCC1CC2)c1ccc(-c2ccc(OCCn3ccnn3)cc2)cc1` (centres unmarked) [Example 185, 1-(2-(4′-(2-(1H-1,2,3-Triazol-1-yl)ethoxy)-[1,1′-biphenyl]-4-yl)propan-2-yl)-3-(4-methyl-1-azabicyclo[3.2.2]nonan-4-yl)urea], the IC50 in assay [1] (setting [4]) stood at 99.9 nM; in assay [2], 12.9 nM; in assay [3] (setting [5]), 3.87 nM; in the assay with C32 human melanoma cells (setting [6]) it was 1000 nM; in the assay with B16 mouse melanoma cells (setting [7]), 3160 nM.

On to `CC(C)(NC(=O)OC1CCN2CCC1CC2)c1ccc(-c2ccc(OCCCn3ccnn3)cc2)cc1` (centres unmarked) [Example 187, 1-Azabicyclo[3.2.2]nonan-4-yl (2-(4′-(3-(1H-1,2,3-triazol-1-yl)propoxy)-[1,1′-biphenyl]-4-yl)propan-2-yl)carbamate], for which the IC50 in assay [1] (setting [4]) was 106 nM; in assay [2], 20.2 nM; in assay [3] (setting [5]), 7.74 nM; in the assay with C32 human melanoma cells (setting [6]), 1000 nM; in the assay with B16 mouse melanoma cells (setting [7]), at least 10000 nM.

For `CC(C)(NC(=O)N1CCN2CCC1CC2)c1ccc(-c2ccc(OCCCn3ccnn3)cc2)cc1` [Example 188, N-(2-(4′-(3-(1H-1,2,3-Triazol-1-yl)propoxy)-[1,1′-biphenyl]-4-yl)propan-2-yl)-1,4-diazabicyclo[3.2.2]nonane-4-carboxamide], the 50% inhibitory concentration (IC50) in assay [1] (setting [4]) was 365 nM; in assay [2], 597 nM; in assay [3] (setting [5]), 77.4 nM; in the assay with C32 human melanoma cells (setting [6]), 1000 nM; with B16 mouse melanoma cells (setting [7]), at least 10000 nM.

`CC(C)(NC(=O)OC1CN2CCC1CC2)c1ccc(-c2ccc(OCCCC#N)cc2)cc1` (centres unmarked) [Example 189, Quinuclidin-3-yl (2-(4′-(3-cyanopropoxy)-[1,1′-biphenyl]-4-yl)propan-2-yl)carbamate]: the half-maximal inhibitory concentration (IC50) in assay [1] (setting [8]) was 86.5 nM; in assay [2] it was 9.57 nM; in assay [3] (setting [9]) it was 3.22 nM; in the assay on C32 human melanoma cells (setting [10]), 8470 nM; in the assay with B16 mouse melanoma cells (setting [11]) it was at least 10000 nM.

Turning to `CC(C)(NC(=O)OC1CN2CCC1CC2)c1ccc(-c2ccc(OCC#N)cc2)cc1` (centres unmarked) [Example 190, Quinuclidin-3-yl (2-(4′-(cyanomethoxy)-[1,1′-biphenyl]-4-yl)propan-2-yl)carbamate], the IC50 is 47.7 nM in assay [1] (setting [8]); 2.59 nM in assay [2]; 0.775 nM in assay [3] (setting [9]); 1000 nM with C32 human melanoma cells (setting [10]); at least 10000 nM with B16 mouse melanoma cells (setting [11]).
